According to ChEMBL document CHEMBL1671624, “Efficacy of quinoxaline-2-carboxylate 1,4-di-N-oxide derivatives in experimental tuberculosis” (Antimicrob Agents Chemother, 2008):
Values after ≈ are worked out from the molar mass of the structure shown.

What was measured:
Type in all cases: functional
[1] = system: Mycobacterium tuberculosis; assay: Antibacterial activity against kanamycin-resistant Mycobacterium tuberculosis by microplate Alamar Blue assay
[2] = system: Mycobacterium tuberculosis; assay: Antibacterial activity against thiacetazone-resistant Mycobacterium tuberculosis by microplate Alamar Blue assay
[3] = system: Mycobacterium tuberculosis; assay: Antibacterial activity against rifampin-resistant Mycobacterium tuberculosis by microplate Alamar Blue assay
[4] = system: Mycobacterium tuberculosis; assay: Antibacterial activity against isoniazid-resistant Mycobacterium tuberculosis by microplate Alamar Blue assay
[5] = system: Mycobacterium tuberculosis; assay: Antibacterial activity against ethambutol-resistant Mycobacterium tuberculosis by microplate Alamar Blue assay
[6] = system: Mycobacterium tuberculosis; assay: Antibacterial activity against ciprofloxacin-resistant Mycobacterium tuberculosis by microplate Alamar Blue assay
[7] = system: Mycobacterium tuberculosis; assay: Antibacterial activity against ethionamide-resistant Mycobacterium tuberculosis by microplate Alamar Blue assay

| SMILES | MIC [1] | MIC [2] | MIC [3] | MIC [4] | MIC [5] | MIC [6] | MIC [7] |
| --- | --- | --- | --- | --- | --- | --- | --- |
| Cc1c(C(=O)OCc2ccccc2)[n+]([O-])c2cc(Cl)c(Cl)cc2[n+]1[O-] | 0.39 µg/mL (≈ 1.03 µM) | 0.78 µg/mL (≈ 2.06 µM) | 0.39 µg/mL (≈ 1.03 µM) | 1.56 µg/mL (≈ 4.11 µM) | 0.78 µg/mL (≈ 2.06 µM) | 0.39 µg/mL (≈ 1.03 µM) | 0.78 µg/mL (≈ 2.06 µM) |
| CCOC(=O)c1c(C)[n+]([O-])c2cc(C)c(C)cc2[n+]1[O-] | ≤ 3.13 µg/mL | ≤ 3.13 µg/mL | ≤ 3.13 µg/mL | 6.25 µg/mL (≈ 22.6 µM) | ≤ 3.13 µg/mL | 12.5 µg/mL (≈ 45.2 µM) | 6.25 µg/mL (≈ 22.6 µM) |
| CCOC(=O)c1c(C)[n+]([O-])c2ccc(C)cc2[n+]1[O-] | – | 0.39 µg/mL (≈ 1.49 µM) | 3.13 µg/mL (≈ 11.9 µM) | – | – | 6.25 µg/mL (≈ 23.8 µM) | 6.25 µg/mL (≈ 23.8 µM) |
| Cc1ccc2c(c1)[n+]([O-])c(C(=O)OCc1ccccc1)c(C)[n+]2[O-] | – | 0.39 µg/mL (≈ 1.2 µM) | 0.39 µg/mL (≈ 1.2 µM) | – | – | 0.39 µg/mL (≈ 1.2 µM) | 1.56 µg/mL (≈ 4.81 µM) |
| Cc1c(C(=O)OCc2ccccc2)[n+]([O-])c2ccccc2[n+]1[O-] | – | 0.2 µg/mL (≈ 0.645 µM) | 0.2 µg/mL (≈ 0.645 µM) | 0.2 µg/mL (≈ 0.645 µM) | – | 0.1 µg/mL (≈ 0.322 µM) | 0.4 µg/mL (≈ 1.29 µM) |
| COC(=O)c1c(C)[n+]([O-])c2cc(C)c(C)cc2[n+]1[O-] | 3.13 µg/mL (≈ 11.9 µM) | ≤ 1.56 µg/mL | 3.13 µg/mL (≈ 11.9 µM) | 3.13 µg/mL (≈ 11.9 µM) | ≤ 1.56 µg/mL | 3.13 µg/mL (≈ 11.9 µM) | 3.13 µg/mL (≈ 11.9 µM) |
| COCCOC(=O)c1c(C)[n+]([O-])c2cc(Cl)c(Cl)cc2[n+]1[O-] | – | 0.39 µg/mL (≈ 1.12 µM) | ≤ 0.2 µg/mL | ≤ 0.2 µg/mL | – | 0.39 µg/mL (≈ 1.12 µM) | 0.78 µg/mL (≈ 2.25 µM) |
| COC(=O)c1c(C)[n+]([O-])c2ccc(C)cc2[n+]1[O-] | 25 µg/mL (≈ 101 µM) | 1.56 µg/mL (≈ 6.28 µM) | 3.13 µg/mL (≈ 12.6 µM) | 6.25 µg/mL (≈ 25.2 µM) | 25 µg/mL (≈ 101 µM) | 6.25 µg/mL (≈ 25.2 µM) | 3.13 µg/mL (≈ 12.6 µM) |
| CCOC(=O)c1c(C)[n+]([O-])c2cc(Cl)c(Cl)cc2[n+]1[O-] | ≤ 0.1 µg/mL | – | 0.2 µg/mL (≈ 0.631 µM) | 0.39 µg/mL (≈ 1.23 µM) | 0.2 µg/mL (≈ 0.631 µM) | 0.2 µg/mL (≈ 0.631 µM) | – |
| CCOC(=O)c1c(C)[n+]([O-])c2ccc(Cl)cc2[n+]1[O-] | 0.39 µg/mL (≈ 1.38 µM) | – | 0.39 µg/mL (≈ 1.38 µM) | 0.39 µg/mL (≈ 1.38 µM) | 0.39 µg/mL (≈ 1.38 µM) | 0.78 µg/mL (≈ 2.76 µM) | – |
| CCOC(=O)c1c(C)[n+]([O-])c2ccccc2[n+]1[O-] | 1.56 µg/mL (≈ 6.28 µM) | – | 1.56 µg/mL (≈ 6.28 µM) | 1.56 µg/mL (≈ 6.28 µM) | – | 3.13 µg/mL (≈ 12.6 µM) | – |
